Earlier results, collected in patent US10568927B2, “Methods and compositions comprising desmopressin in combination with a beta-3-adrenergic receptor agonist” (Serenity Pharmaceuticals, LLC, priority 2013, dated 2020).

Settings: human, in vivo

NC(=O)CC[C@@H]1NC(=O)[C@H](Cc2ccccc2)NC(=O)[C@H](Cc2ccc(O)cc2)NC(=O)CCSSC[C@@H](C(=O)N2CCC[C@H]2C(=O)N[C@H](CCCN=C(N)N)C(=O)NCC(N)=O)NC(=O)[C@H](CC(N)=O)NC1=O [desmopressin, 1-desamino-8-D-arginine vasopressin]
half-life (known clearance rate): 1.5 to 2.0 h
